Entries after “also recorded” stand apart in the source; their conditions may differ.
Key:
GTPKRAS^WT = GTPKRAS^WT (Homo sapiens, UniProt P01116); test: Microscale thermophoresis (MST) binding, GTP-state (GNP-bound) KRAS WT
Excerpt: FIGS. 1A-1D show representative data for the predicted binding mode and measured affinity of disclosed compound 11 to KRAS. (FIG. 1A) Structure of the catalytic domain of KRAS used for the virtual screening. Lobe1 (residues 1-86) and lobe2 (residues 87-166) are highlighted in different colors, as well as switches 1 (residues 30-40) and 2 (residues 60-75). The location of the target allosteric pocket p1 is indicated. (FIG. 1B) Chemical structure of compound 11. (FIG. 1C) Predicted binding pose of compound 11, with the key residues that make polar or vdW contacts with the ligand labeled. (FIG. 1D) Microscale thermophoresis (MST) experiments indicating direct binding of compound 11 to KRAS, along with dissociation constants (KD) derived from the curves. Changes in fluorescence upon titration of […] KRAS with increasing concentration of compound are shown: KRAS^WT (red), KRAS^G12C (green), KRAS^G12D (purple) and KRAS^Q61M (blue), each bound to the non-hydrolyzable GTP analogue, guanylyl imidodiphosphate (GNP). The same experiments indicated no binding to GDP-bound KRAS^G12D and KRAS^WT as well as Rap1B, which was used as control. […]

[1] = target: KRAS^Q61H in the GTP state (Homo sapiens, UniProt P01116, Q61H); test: MST binding, GTP-state KRAS Q61H
KRAS^Q61H in the GTP state, sequence (P01116 1-188 isoform P01116-2 Q61H): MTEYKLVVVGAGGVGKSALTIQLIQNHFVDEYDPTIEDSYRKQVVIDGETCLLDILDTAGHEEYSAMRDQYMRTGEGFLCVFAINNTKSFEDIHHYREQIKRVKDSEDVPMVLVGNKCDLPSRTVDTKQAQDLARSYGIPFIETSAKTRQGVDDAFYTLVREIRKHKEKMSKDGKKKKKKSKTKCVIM

KRAS^G12V = test: Cell signaling (Western) in BHK cells expressing KRAS G12V; type: cell-based, hamster
Protocol: Cell signaling. The inhibitory potential of compounds was tested in monoclonal Baby Hamster Kidney (BHK) cell lines stably expressing monomeric green fluorescence protein (mGFP)-tagged KRAS^G12D, K-Ras^G12V and HRAS^G12V. Cells were cultured in Dulbecco's Modified Eagle Medium (DMEM, Hyclone) supplemented with 10% v/v bovine calf serum and incubated with compound or vehicle (DMSO) for 3 h without serum. Cells were then harvested in lysis buffer (50 mM Tris (pH 7.5), 75 mM NaCl, 25 mM NaF, 5 mM MgCl2, 5 mM EGTA, 1 mM dithiothreitol, 100 μM NaVO4, 1% Nonidet P40 plus protease inhibitors) and subjected to Western analysis controlling protein loading by BCA (bicinchoninic acid) assay. Lysates were resolved with Bio-Rad polyacrylamide TGX 10% gel, transferred to polyvinylidene fluoride (PVDF) membrane and immunoblotted using pan-AKT (2920S), GFP (2956S), pAKT^S473 (4060L), p-cRaf^S338 (9427S), p-ERK^T202/Y204 (4370L), ERK1/2 (4695S) or β-actin antibodies (Cell Signaling Technology). IC50 values were calculated with Prism 4-parameter fit.

KRASWT = KRASWT (Homo sapiens, UniProt P01116); test: Nucleotide exchange assay (intrinsic and SOS-mediated); type: biochemical
KRASWT, sequence (P01116 1-188 isoform P01116-2): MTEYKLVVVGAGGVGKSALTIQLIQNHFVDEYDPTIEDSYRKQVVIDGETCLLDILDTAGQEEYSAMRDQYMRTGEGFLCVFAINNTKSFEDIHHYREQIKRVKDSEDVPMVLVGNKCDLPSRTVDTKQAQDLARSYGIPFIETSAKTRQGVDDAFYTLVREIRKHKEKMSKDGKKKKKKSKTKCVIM
Protocol: Nucleotide exchange and release assays. Loading of fluorescent-labeled GDP (BODIPY-GDP; BGDP from hereon) to KRAS was conducted following previous reports (23, 47), with minor modifications. Purified KRAS was buffer-exchanged in NAP-5 column (GE Life Sciences) in low Mg^2+ buffer (25 mM Tris pH 7.5, 50 mM NaCl, and 0.5 mM MgCl2). The eluate was incubated with 10-fold molar excess of BGDP (Life Technologies) in the presence of 5 mM EDTA and 1 mM DTT for 1.5 h at 20° C. in the dark. Then 10 mM MgCl2 was added and the solution was incubated for 30 min at 20° C. Free nucleotide was removed by gel filtration using a PD-10 column (GE Life Sciences) that had been equilibrated with the reaction buffer (25 mM Tris-HCL pH 7.5, 50 mM NaCl, 1 mM MgCl2, and 1 mM DTT). The concentration of ^BGDPKRAS was determined using Bradford assay and a BGDP standard curve. Then the effect of ligands on the intrinsic rate of nucleotide release was monitored using the decrease in fluorescence with time as BGDP dissociates from KRAS in a 100 μL reaction mixture (96-well plate) of 0.5 μM B^GDPKRAS, 100 μM GTP and varying concentrations of ligand (0 to 25 μM); GTP was added just before measurements. To measure the rate of SOS-mediated nucleotide release, 0.5 μM SOS (residues 564-1049, Cytoskeleton Inc) was added after adding GTP, and fluorescence was immediately read (excitation: 485 nm, emission: 510 nm) using Tecan Infinite M200 plate reader. Intrinsic and SOS-mediated nucleotide exchange rates were monitored with the fluorescence intensity increase of BGTP as it displaces GDP from KRAS. A 100 μL reaction mixture was used containing 0.5 μM each of ^GDPKRAS, BGTP (and SOS) plus varying concentrations of ligand (0 to 25 μM); BGTP was added just before measurements. Experiments were conducted with minimal light and the reaction was monitored for 2 h at room temperature. Fluorescence intensities were normalized at 120 s and the traces were fit with linear or single exponential functions (Igor Pro, Wavemetrics).
The effect of compound 11 on intrinsic and GEF-dependent nucleotide release and exchange reactions was determined. […] In particular, 11 decreased the intrinsic rate of nucleotide exchange by ˜10-fold at >10 μM (Fig S4, top-left), but it has no effect on intrinsic nucleotide release (Appendix I, Figure S4, bottom-left). […] Since GTP hydrolysis is unlikely to occur within the timescale of the experiments disclosed herein (2, 3), a plausible interpretation of the former would be compromised GTP loading. This is possible if, for example, the ligand binds to the nucleotide free ‘transition state’ conformation of KRAS and induces reorganization of active site residues. […]

GTPKRAS^WT, sequence (P01116 1-188 isoform P01116-2): as above

Cc1nn2c(N3CCN(CCO)CC3)cc(-c3ccccc3)nc2c1-c1ccccc1 [Compound 11, 2-[4-(8-methyl-3,9-diphenyl-2,6,7-triazabicyclo[4.3.0]nona-2,4,7,9-tetraen-5-yl)piperazin-1-yl]ethanol]
Kd (GTPKRAS^WT): ~300 nM | Kd [1]: 400 to 700 nM | effect on p-ERK levels (KRAS^G12V): dose-dependently reduced; also recorded: dose-dependently decreases | effect on p-cRaf levels (KRAS^G12V): dose-dependently reduced; also recorded: dose-dependently decreases | effect on SOS-mediated nucleotide exchange rate (KRASWT; SOS-mediated): slightly reduced | decrease of rate of nucleotide exchange (KRASWT; SOS-mediated (Fig S4 top-right)): 1.1 fold | effect on intrinsic nucleotide exchange rate (KRASWT; intrinsic): slightly reduced | decrease of intrinsic rate of nucleotide exchange (KRASWT; intrinsic, at >10 μM): ~10 fold
